The values that follow are results of earlier work, collected in patent US20060172014A1, “Treatment of lung cancer with active vitamin D compounds in combination with other treatments” (Novacea, Inc., priority 2003, published 2006).

Series [1] concerns patients with refractory malignancies. Particulars: weekly HDPA of calcitriol; Beer et al.
In series [2] the test system is lung cancer cell line.

Turning to `C=C1/C(=C\C=C2/CCC[C@]3(C)[C@@H]([C@H](C)CCCC(C)(C)O)CC[C@@H]23)C[C@@H](O)C[C@@H]1O` [calcitriol, 1α,25-dihydroxyvitamin D3], in series [1], the Dose-limiting toxicity entry is “no dose-limiting toxicity” and the “Mean peak calcitriol levels” value is “within the therapeutic range”. Besides, the “Growth of lung cancer cell line” value in series [2] (cell line containing high levels of vitamin D receptor) is on record as “inhibit the growth”. For the same molecule, the “Growth of lung cancer cell lines” value in series [2] (cell lines having insignificant levels of the receptor) is on record as “not”.
